Measured values: patent US20250049812A1, “Compounds that Inhibit Necroptosis and Their Preparation Methods” (SHANGHAI INSTITUTE OF ORGANIC CHEMISTRY, CHINESE ACADEMY OF …, priority 2021, published 2025)

tested on: Jurkat FADD (−/−) Cells; assay: TNF-α induced necroptosis of Jurkat FADD-deficient cells (CellTiter-Glo cell survival); assay type: cell-based, human; settings: Homo sapiens, Jurkat, 13 h
Method in brief: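 Cells in RPMI 1640 with 10% FBS were pretreated for 1 h at 37 °C with compound (12-point threefold series from 25 μM, or 0.5 μM, in triplicate). They were then stimulated with TNFα added as a 5 ng/mL solution for 13 h. Survival was read by luminescence.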

Structure (SMILES) | IC50
COC(=O)C(=O)c1cn2c3c(cccc13)N(C)C(=O)[C@@H](NC(=O)c1nnc(Cc3ccccc3)[nH]1)C2 [T-92, Methyl(S)-2-(3-(5-benzyl-4H-1,2,4-triazole-3-carboxamide)-1-methyl-2-oxo-1,2,3,4-tetrahydro-[1,4]diazepine [3,2,1-hi]indol-7-yl)-2-oxoacetic Acid] | > 1000 nM
CN1C(=O)[C@@H](NC(=O)c2nnc(Cc3ccccc3)[nH]2)Cn2cc(C(=O)C(F)(F)F)c3cccc1c32 [T-93, (S)-5-benzyl-N-(1-methyl-2-oxo-7-(2,2,2-trifluoroacetyl)-1,2,3,4-tetrahydro-[1,4]diazepine [3,2,1-hi]indol-3-yl)-4H-1,2,4-triazole-3-carboxamide] | 100 to 1000 nM
CN1C(=O)[C@@H](NC(=O)c2nnc(Cc3ccccc3)[nH]2)Cn2cc(C(=O)O)c3cccc1c32 [T-94, (S)-3-(5-benzyl-4H-1,2,4-triazole-3-carboxamide)-1-methyl-2-oxo-1,2,3,4-tetrahydro-[1,4] diazabicyclo[3,2,1-hi] indole-7-carboxylic Acid] | > 1000 nM
COC(=O)c1cn2c3c(cccc13)N(C)C(=O)[C@@H](NC(=O)c1nnc(Cc3ccccc3)[nH]1)C2 [T-95, Methyl (S)-3-(5-benzyl-4H-1,2,4-triazole-3-carboxamide)-1-methyl-2-oxo-1,2,3,4-tetrahydro-[1,4] diazepine [3,2,1-hi] indole-7-carboxylate] | 100 to 1000 nM

same assay, conditions: Homo sapiens; TNF-α induced necroptosis, Jurkat FADD-deficient cells, 13 hours, CellTiter-Glo; read-out: IC50

Structure (SMILES) | IC50
CN1C(=O)C(NC(=O)c2nnc(Cc3ccccc3)[nH]2)Cc2c[nH]c3ccc(F)c1c23 (racemic) [T-131, (±)-5-benzyl-N-(9-fluoro-1-methyl-2-oxo-2,3,4,6-tetrahydroazepincd [4,3,2-cd]indol-3-yl)-4H-1,2,4-triazole-3-carboxamide] | < 10 nM
CN1C(=O)[C@@H](NC(=O)c2nnc(Cc3ccccc3)[nH]2)Cc2c[nH]c3nccc1c23 [T-71, (S)-5-benzyl-N-(6-methyl-7-oxo-6,7,8,9-tetrahydro-2H-2,3,6-triazabenzene[cd]azulene-8-yl)-4H-1,2,4-triazole-3-carboxamide] | 10 to 100 nM
CN1C(=O)[C@@H](NC(=O)c2nnc(Cc3ccccc3)[nH]2)Cc2n[nH]c3cccc1c23 [T-72, (S)-5-benzyl-N-(6-methyl-7-oxo-6,7,8,9-tetrahydro-2H-azacyclo [4,3,2-cd]indazol-8-yl)-4H-1,2,4-triazole-3-carboxamide] | 100 to 1000 nM
COc1ncccc1-c1cn2c3c(cccc13)N(C)C(=O)C(NC(=O)c1nnc(Cc3ccccc3)[nH]1)C2 (centres unmarked) [T-78, 5-benzyl-N-(7-(2-methoxypyridin-3-yl)-1-methyl-2-oxo-1,2,3,4-tetrahydro-[1,4]diazepino[3,2,1-hi]indol-3-yl)-4H-1,2,4-triazole-3-carboxamide] | < 10 nM
Cc1cnn(C)c1-c1cn2c3c(cccc13)N(C)C(=O)C(NC(=O)c1nnc(Cc3ccccc3)[nH]1)C2 (centres unmarked) [T-81, 5-benzyl-N-(7-(1,4-dimethyl-1H-pyrazol-5-yl)-1-methyl-2-oxo-1,2,3,4-tetrahydro-[1,4]diazepino[3,2,1-hi]indol-3-yl)-4H-1,2,4-triazole-3-carboxamide] | < 10 nM
CN1C(=O)C(NC(=O)c2nnc(Cc3ccccc3)[nH]2)Cn2cc(-c3ncccc3C(F)(F)F)c3cccc1c32 (centres unmarked) [T-82, 5-benzyl-N-(1-methyl-2-oxo-7-(3-(trifluoromethyl)pyridin-2-yl)-1,2,3,4-tetrahydro-[1,4]diazepino[3,2,1-hi]indol-3-yl)-4H-1,2,4-triazole-3-carboxamide] | < 10 nM
Cc1noc(C)c1-c1cn2c3c(cccc13)N(C)C(=O)C(NC(=O)c1nnc(Cc3ccccc3)[nH]1)C2 (centres unmarked) [T-86, 5-benzyl-N-(7-(3,5-dimethylisoxazol-4-yl)-1-methyl-2-oxo-1,2,3,4-tetrahydro-[1,4]diazepine[3,2,1-hi]indol-3-yl)-4H-1,2,4-triazole-3-carboxamide] | < 10 nM
CN1C(=O)[C@@H](NC(=O)c2nnc(Cc3ccccc3)[nH]2)Cn2cc(-c3cnn(C(F)F)c3)c3cccc1c32 [T-115, (S)-5-benzyl-N-(7-(1-(difluoromethyl)-1H-pyrazol-4-yl)-1-methyl-2-oxo-1,2,3,4-tetrahydro-1,4-diazepine [3,2,1-hi]indol-3-yl)-4H-1,2,4-triazole-3-carboxamide] | 10 to 100 nM
CN1C(=O)[C@@H](NC(=O)c2nnc(Cc3ccccc3)[nH]2)Cn2cc(-c3ccn[nH]3)c3cccc1c32 [T-116, (S)-5-benzyl-N-(1-methyl-2-oxo-7-(1H-pyrazol-5-yl)-1,2,3,4-tetrahydro-[1,4]diazepine [3,2,1-hi]indol-3-yl)-4H-1,2,4-triazole-3-carboxamide] | 10 to 100 nM
Cc1nn(C)cc1-c1cn2c3c(cccc13)N(C)C(=O)[C@@H](NC(=O)c1nnc(Cc3ccccc3)[nH]1)C2 [T-117, (S)-5-benzyl-N-(7-(1,3-dimethyl-1H-pyrazol-4-yl)-1-methyl-2-oxo-1,2,3,4-tetrahydro-1,4-diazepine [3,2,1-hi]indol-3-yl)-4H-1,2,4-triazole-3-carboxamide] | < 10 nM
CN1C(=O)[C@@H](NC(=O)c2nnc(Cc3ccccc3)[nH]2)Cn2cc(-c3cnn(C4CCOCC4)c3)c3cccc1c32 [T-120, (S)-5-benzyl-N-(1-methyl-2-oxo-7-(1-(tetrahydro-2H-pyran-4-yl)-1H-pyrazol-4-yl)-1,2,3,4-tetrahydro-1,4-diazepine[3,2,1-hi]indol-3-yl)-4H-1,2,4-triazole-3-carboxamide] | < 10 nM
CN1C(=O)[C@@H](NC(=O)c2nnc(Cc3ccccc3)[nH]2)Cn2cc(-c3cnn(C4CC4)c3)c3cccc1c32 [T-121, (S)-5-benzyl-N-(7-(1-cyclopropyl-1H-pyrazol-4-yl)-1-methyl-2-oxo-1,2,3,4-tetrahydro-1,4-diazepino [3,2,1-hi]indol-3-yl)-4H-1,2,4-triazole-3-carboxamide] | 10 to 100 nM
CN1C(=O)[C@@H](NC(=O)c2nnc(Cc3ccccc3)[nH]2)Cn2cc(-c3cn(C)nc3-c3ccccc3)c3cccc1c32 [T-122, (S)-5-benzyl-N-(1-methyl-7-(1-methyl-3-phenyl-1H-pyrazol-4-yl)-2-oxo-1,2,3,4-tetrahydro-[1,4]diazepine [3,2,1-hi]indol-3-yl)-4H-1,2,4-triazole-3-carboxamide] | 10 to 100 nM
CN1C(=O)[C@@H](NC(=O)c2nnc(Cc3ccccc3)[nH]2)Cn2cc(-c3cncs3)c3cccc1c32 [T-123, (S)-5-benzyl-N-(1-methyl-2-oxo-7-(thiazol-5-yl)-1,2,3,4-tetrahydro-[1,4]diazepine [3,2,1-hi]indol-3-yl)-4H-1,2,4-triazole-3-carboxamide] | 10 to 100 nM
CN1C(=O)[C@@H](NC(=O)c2nnc(Cc3ccccc3)[nH]2)Cn2cc(-c3cnn(CC(F)(F)F)c3)c3cccc1c32 [T-124, (S)-5-benzyl-N-(1-methyl-2-oxo-7-(1-(2,2,2-trifluoroethyl)-1H-pyrazol-4-yl)-1,2,3,4-tetrahydro-[1,4]diazepine [3,2,1-hi]indol-3-yl)-4H-1,2,4-triazole-3-carboxamide] | 10 to 100 nM

same assay, conditions: TNF-α induced necroptosis, Jurkat FADD-deficient cells, 13 hours, CellTiter-Glo; read-out: IC50

Structure (SMILES) | IC50
CN1C(=O)[C@@H](NC(=O)c2nnc(Cc3ccccc3)[nH]2)Cn2ccc3c(-c4c[nH]nc4C(F)(F)F)ccc1c32 [T-113, (S)-5-benzyl-N-(1-methyl-2-oxo-7-(3-(trifluoromethyl)-1H-pyrazol-4-yl)-1,2,3,4-tetrahydro-[1,4]diazepine [3,2,1-hi]indol-3-yl)-4H-1,2,4-triazole-3-carboxamide] | < 10 nM
